{
  "source": "patent EP4140481A1",
  "about": "“PROTEIN-OLIGOMER BINDING AGENTS AND THERAPEUTIC USES THEREOF” (Galyan Bio, Inc., priority 2021, dated 2023)",
  "key": {"LC3": {"tested_on": "LC3", "assay": "Autophagic flux (LC3 staining)", "type": "cell-based, mouse", "experimental": "Staining - Cells were permeabilized with 0.3% Triton X-100 in 4 °C PBS (pH 7.4 from ThermoFisher) for 10 minutes. Then the cells were washed two times with 4 °C PBS. Subsequently, cells are blocked with 3% NGS (normal goat serum from Thermo Fisher) in 4 ° C PBS for 1 hour. Cells were incubated with primary antibodies in blocking buffer (PBS, 3% NGS, 0.02% NaN3) over night at 4 °C. Primary antibodies were mouse antipolyglutamine monoclonal antibody 3B5H10 (Sigma-Aldrich) at 1:250 dilution and Guinea Pig anti-MAP2 polyclonal antibody (Synaptic Systems) at 1:500 dilution. […]\nFluorescence Imaging - Imaging sessions were performed on a confocal microscope system (Carl Zeiss Microscopy) equipped with a dual spinning disk unit (Yokogawa). […] The fluorescence images obtained of the immunofluorescence labelled tissue sections were quantified with the help of the \"Image Processing and Analysis in Java\" or short ImageJ software distributed under the GNU General Public License by the NIH (Rueden, C.T. et al., BMC Bioinformatics. 2017 Nov 29;18(1):529), i.e. the edition used was the Fiji distribution (Schindelin, J. et al., Nature methods. 2012 Jun 28;9(7):676-82). […]\nAutophagic flux was calculated as the area stained with LC3 antibody per cell in STHdh 111/111 with autophagy inhibitor NH4CI minus area stained with LC3 antibody per cell in STHdh 111/111 without the autophagy inhibitor NH4CI."}, "C. elegans": {"tested_on": "C. elegans", "assay": "C. elegans differential gene expression (RNA-Seq)", "type": "in vivo", "conditions": "vs. vehicle control", "experimental": "[…]. Both young (adult day 3) and aged (adult day 10) worms were collected from the same population of worms tested in lifespan assay.\nTechnical Background and Data Visualization Guide: Differential gene expression was performed with EdgeR using […] likelihood ratio tests based on fitting linear models. The likelihood ratios were used to determine the p-values which were subsequently corrected for using the BH false discovery rate (fdr) method. Eventually, differential expressed genes (DEG) were defined as genes with fdr-corrected p-value of 0.05 or lower, as well as a change in expression of at least 2-fold in a given between-group comparison. In this study, the following comparisons groups were used: Table 36: Comparison groups for differential gene expression\n[…]. All DEG shown have P values under the cutoff of 0.05; […]. Gene function annotations collected from WormBase and human orthologs are predicted by DRSC Integrative Ortholog Prediction Tool (DIOPT, www.flyrna.org). […] […]. All DEG shown have P values under the cutoff of 0.05; […]. Gene function annotations collected from WormBase and human orthologs are predicted by DRSC Integrative Ortholog Prediction Tool (DIOPT, www.flyrna.org)."}, "[1]": {"biological_target": "T1, Wild type (wt) α-Synuclein (Homo sapiens, UniProt P37840)", "T1 construct": "purchased rPeptide, Watkinsville, Georgia S-1001-2", "assay": "Dynamic Light Scattering (DLS), induced aggregation", "type": "biochemical"}},
  "data": [
    {"smiles": "Cc1[nH]c2ccc(C(=O)NCCN(C(C)C)C(C)C)cc2c1C", "note": "[Compound 22]", "values": [
      {"measurement": "autophagic flux", "setting": "LC3; STHdh 111/111, LC3 area with NH4Cl minus without NH4Cl", "value": "positive autophagic flux"},
      {"measurement": "LC3 stained area", "setting": "LC3; STHdh 111/111 neurons versus untreated, p < 0.001", "value": "decreased"}
    ]},
    {"smiles": "CCc1c(C)[nH]c2ccc(C(=O)NCCN(CC)CC)cc12", "note": "[Compound 4, N-(2-(diethylamino)ethyl)-3-ethyl-2-methyl-1H-indole-5-carboxamide]", "values": [
      {"measurement": "cyp-35A1 Log2(fold change)", "setting": "C. elegans; Day 3, 200 nM", "value": 3.04},
      {"measurement": "cyp-35B1 Log2(fold change)", "setting": "C. elegans; Day 3, 200 nM", "value": 3.41},
      {"measurement": "cyp-35B2 Log2(fold change)", "setting": "C. elegans; Day 3, 200 nM", "value": 9.18},
      {"measurement": "cyp-35B3 Log2(fold change)", "setting": "C. elegans; Day 3, 200 nM", "value": 12.96},
      {"measurement": "irg-4 Log2(fold change)", "setting": "C. elegans; Day 3, 200 nM", "value": 1.37},
      {"measurement": "irg-5 Log2(fold change)", "setting": "C. elegans; Day 3, 200 nM", "value": 2.09},
      {"measurement": "pgp-13 Log2(fold change)", "setting": "C. elegans; Day 3, 200 nM", "value": 3.55},
      {"measurement": "C18H9.6 Log2(fold change)", "setting": "C. elegans; Day 3, 2 µM", "value": 1.16},
      {"measurement": "C29F3.7 Log2(fold change)", "setting": "C. elegans; Day 3, 2 µM", "value": 1.25},
      {"measurement": "D1086.3 Log2(fold change)", "setting": "C. elegans; Day 3, 2 µM", "value": 1.19},
      {"measurement": "F15B9.6 Log2(fold change)", "setting": "C. elegans; Day 3, 2 µM", "value": 1.57},
      {"measurement": "F55G11.2 Log2(fold change)", "setting": "C. elegans; Day 3, 2 µM", "value": 2.80},
      {"measurement": "T19B10.2 Log2(fold change)", "setting": "C. elegans; Day 3, 2 µM", "value": 1.79},
      {"measurement": "cpr-4 Log2(fold change)", "setting": "C. elegans; Day 3, 2 µM", "value": 1.35},
      {"measurement": "cyp-33A1 Log2(fold change)", "setting": "C. elegans; Day 3, 2 µM", "value": 1.27},
      {"measurement": "cyp-35A1 Log2(fold change)", "setting": "C. elegans; Day 3, 2 µM", "value": 8.58},
      {"measurement": "cyp-35B1 Log2(fold change)", "setting": "C. elegans; Day 3, 2 µM", "value": 5.05},
      {"measurement": "cyp-35B2 Log2(fold change)", "setting": "C. elegans; Day 3, 2 µM", "value": 11.26},
      {"measurement": "cyp-35B3 Log2(fold change)", "setting": "C. elegans; Day 3, 2 µM", "value": 15.81},
      {"measurement": "cyp-35C1 Log2(fold change)", "setting": "C. elegans; Day 3, 2 µM", "value": 2.17},
      {"measurement": "far-3 Log2(fold change)", "setting": "C. elegans; Day 3, 2 µM", "value": 1.66},
      {"measurement": "gst-5 Log2(fold change)", "setting": "C. elegans; Day 3, 2 µM", "value": 2.71},
      {"measurement": "irg-4 Log2(fold change)", "setting": "C. elegans; Day 3, 2 µM", "value": 3.88},
      {"measurement": "irg-5 Log2(fold change)", "setting": "C. elegans; Day 3, 2 µM", "value": 5.88},
      {"measurement": "pgp-13 Log2(fold change)", "setting": "C. elegans; Day 3, 2 µM", "value": 5.44},
      {"measurement": "ugt-44 Log2(fold change)", "setting": "C. elegans; Day 3, 2 µM", "value": 1.45},
      {"measurement": "cyp-35A1 Log2(fold change)", "setting": "C. elegans; Day 10, 200 nM", "value": 4.25},
      {"measurement": "cyp-35B1 Log2(fold change)", "setting": "C. elegans; Day 10, 200 nM", "value": 1.62},
      {"measurement": "cyp-35B2 Log2(fold change)", "setting": "C. elegans; Day 10, 200 nM", "value": 5.71},
      {"measurement": "cyp-35B3 Log2(fold change)", "setting": "C. elegans; Day 10, 200 nM", "value": 11.65},
      {"measurement": "irg-4 Log2(fold change)", "setting": "C. elegans; Day 10, 200 nM", "value": 1.22},
      {"measurement": "irg-5 Log2(fold change)", "setting": "C. elegans; Day 10, 200 nM", "value": 2.12},
      {"measurement": "pgp-13 Log2(fold change)", "setting": "C. elegans; Day 10, 200 nM", "value": 4.36},
      {"measurement": "F55G11.2 Log2(fold change)", "setting": "C. elegans; Day 10, 2 µM", "value": 1.70},
      {"measurement": "K08D8.6 Log2(fold change)", "setting": "C. elegans; Day 10, 2 µM", "value": 1.45},
      {"measurement": "cpr-4 Log2(fold change)", "setting": "C. elegans; Day 10, 2 µM", "value": 1.80},
      {"measurement": "cyp-35A1 Log2(fold change)", "setting": "C. elegans; Day 10, 2 µM", "value": 6.81},
      {"measurement": "cyp-35B1 Log2(fold change)", "setting": "C. elegans; Day 10, 2 µM", "value": 2.06},
      {"measurement": "cyp-35B2 Log2(fold change)", "setting": "C. elegans; Day 10, 2 µM", "value": 6.61},
      {"measurement": "cyp-35B3 Log2(fold change)", "setting": "C. elegans; Day 10, 2 µM", "value": 13.40},
      {"measurement": "cyp-35C1 Log2(fold change)", "setting": "C. elegans; Day 10, 2 µM", "value": 1.60},
      {"measurement": "gst-5 Log2(fold change)", "setting": "C. elegans; Day 10, 2 µM", "value": 2.42},
      {"measurement": "irg-4 Log2(fold change)", "setting": "C. elegans; Day 10, 2 µM", "value": 2.95},
      {"measurement": "irg-5 Log2(fold change)", "setting": "C. elegans; Day 10, 2 µM", "value": 4.26},
      {"measurement": "pgp-13 Log2(fold change)", "setting": "C. elegans; Day 10, 2 µM", "value": 6.36},
      {"measurement": "oligomerization of wt α-Synuclein", "setting": "[1]; Compound 4 solved in methanol", "value": "does not oligomerize"},
      {"measurement": "% Volume, Peak 1", "setting": "[1]; by volume, 70 µM equimolar Compound 4 solved in methanol", "value": "99,4%"}
    ]}
  ]
}
